Laboratory results: US6521211B1, “Methods of imaging and treatment with targeted compositions” (Bristol-Myers Squibb Medical Imaging, Inc., priority 1995, dated 2003)

System: β-galactosidase gene (pSV β-gal)
Assay: in vivo delivery of genetic material in rats, X-gal staining, with or without ultrasound
Set-up: species or system Sprague Dawley rats
Conditions: mixed with plasmid pSV β-gal, tail vein, 48 hours
Protocol: Plasmid pSV β-gal (Promega, Madison, Wiss.), which contains the β-galactosidase gene, and the cationic lipid compound prepared in Example 3 were combined by mixing. The resulting mixture was injected into each of three Sprague Dawley rats (rats (A), (B) and (C)) via the tail vein. Rat (A) was not subjected to ultrasound. Ultrasonic energy was applied to the inside of the hind leg during injection for each of rats (B) and (C). After 48 hours, the rats were euthanized and the tissues were removed. The tissues were fixed for 72 hours in 2% formalin, sliced thin and placed in an X-gal solution. After 16 hours at 37° C., the tissues were inspected.

## CCCCCCCCCCCCCCCCOC(=O)CN(CC[N+](C)(CC(=O)NCC[N+](C)(C)C)CC(=O)OCCCCCCCCCCCCCCCC)CC(=O)O (stereo not drawn) [Example 3, N,N′-bis (hexadecyloxycarbonylmethylene)-N-(β-N,N,N-trimethylammoniumethyl-aminocarbonylmethylene) -N-methyl-N′-(carboxymethylene)ethylenediamine diiodide]
Rat (A), no ultrasound
  X-gal staining of tissue (transfection): blue color which is indicative of general transfection
Rats (B) and (C), ultrasonic energy to inside of hind leg during injection
  X-gal staining of tissue (transfection): blue color only at the site where ultrasound energy was applied
